Experimental findings from patent US10494364B2, “Cathepsin K inhibitors and application thereof” (SUNSHINE LAKE PHARMA CO., LTD., priority 2015, dated 2019) are described below.

Like-named read-outs stand apart in the source and are kept apart here. A value given as a limit tells only on which side of the number the result lay.

One series deals with T1, human cathepsin K (Homo sapiens, UniProt P43235).
T1 sequence (P43235 115-329): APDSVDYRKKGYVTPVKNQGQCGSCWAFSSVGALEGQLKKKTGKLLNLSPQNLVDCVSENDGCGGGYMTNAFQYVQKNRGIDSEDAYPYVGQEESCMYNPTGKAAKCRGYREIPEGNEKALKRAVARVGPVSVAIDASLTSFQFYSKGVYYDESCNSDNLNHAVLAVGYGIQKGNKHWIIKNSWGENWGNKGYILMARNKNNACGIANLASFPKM
Briefly: Assay of cathepsin K inhibitory activity in vitro. The following applies: IC50 against human cathepsin K; substrate Z-Phe-Arg-AMC 10 μM; 25° C.; read-out: Cat-K. It is filed as biochemical. As to the method: Assay Method of Cathepsin K Inhibitory Activity In Vitro
Using 45000-fold diluted cathepsin K solution and 10 μM Z-Phe-Arg-AMC as substrate, the test compound and cathepsin K solution were incubated at 25° C. for 15 min in a 15 μL reaction system according to the optimized experimental condition.

The target of another series is human cathepsin B (Homo sapiens, UniProt P07858). The experiment in a line: Assay of cathepsin B inhibitory activity in vitro. The series is classed as biochemical. The following applies: IC50 against human cathepsin B; substrate Z-Phe-Arg-AMC 10 μM; 25° C.; read-out: Cat-B. As to the method: Assay Method of Cathepsin B Inhibitory Activity In Vitro
0.01 ng/μL was the final concentration of Cathepsin B in the enzyme reaction, and Z-Phe-Arg-AMC with the final concentration of 10 μM was added into the reaction system as substrate, in the reaction system the test compound and enzyme had been incubated at 25° C. for 15 min.

A further series has as its target human cathepsin L (Homo sapiens, UniProt P07711). The experiment in a line: Assay of cathepsin L inhibitory activity in vitro. It is filed as biochemical. The settings on record: IC50 against human cathepsin L; substrate Z-Phe-Arg-AMC 10 μM; 25° C.; read-out: Cat-L. As to the method: Assay Method of Cathepsin L Inhibitory Activity In Vitro
0.01 ng/μL was the final concentration of Cathepsin L in the enzyme reaction, and Z-Phe-Arg-AMC with the final concentration of 10 μM was added into the reaction system as substrate, in the reaction system the test compound and enzyme had been incubated at 25° C. for 15 min.

The target of the next series is human cathepsin S (Homo sapiens, UniProt P25774). The experiment in a line: Assay of cathepsin S inhibitory activity in vitro. The following applies: IC50 against human cathepsin S; substrate Z-VVR-AMC 20 μM; 25° C.; read-out: Cat-S. It is filed as biochemical. As to the method: Assay Method of Cathepsin S Inhibitory Activity In Vitro
0.25 ng/L was the final concentration of Cathepsin S in the enzyme reaction, and Z-VVR-AMC with the final concentration of 20 μM was added into the reaction system as substrate, in the reaction system the test compound and enzyme had been incubated at 25° C. for 15 min.

Series [1] can be described thus: Pharmacokinetic test in SD rats (iv and oral gavage), plasma by LC/MS/MS. It is filed as in vivo. The settings on record: rat, male SD rats; for AUC(0-inf): read-out: AUCINF h * ng/ml; for AUC(0-t): read-out: AUClast h * ng/ml; for half-life: read-out: T1/2 h (converted); for Vd: read-out: Vss; for bioavailability: po 5 mg/kg vs iv 1 mg/kg. As to the method: Healthy adult male SD rats were divided into groups with administration of compound by intravenous injection and oral gavage.
2. Preparation of the Test Compound Solution:
A certain amount of the test compound was weighed, and then mixed with 5% DMSO, 10% Kolliphor HS15 and 85% Saline to prepare a clarified solution.
3. Administration and Sample Collection:
All groups were fasted for 12 hours before administering, free drinking, and fed at 3 hours after administration. Each group was administered with test compound by vein intravenous (iv, 1 mg/kg) in the hind foot and oral gavage (po, 5 mg/kg) independently. The blood samples were collected from tail vein at the time point of 0 h, 0.083 h, 0.25 h, 0.5 h, 1 h, 2 h, 4 h, 6 h, 8 h and 24 h after administration and the amount of blood sample collected at each time point was about 200-400 μL. The blood samples collected at each time point were independently placed in K2EDTA anticoagulation tube and preserved in the incubator containing ice packs. The plasma of each blood sample above was separated by centrifugation at 4600 r/min at 4° C. for 5 min in 15 minutes after collecting. The plasma samples were preserved at −80° C. for measuring.
The content of the compound in plasma of rat after administration was determined by LC/MS/MS method.

human cathepsin S, sequence (P25774 115-331): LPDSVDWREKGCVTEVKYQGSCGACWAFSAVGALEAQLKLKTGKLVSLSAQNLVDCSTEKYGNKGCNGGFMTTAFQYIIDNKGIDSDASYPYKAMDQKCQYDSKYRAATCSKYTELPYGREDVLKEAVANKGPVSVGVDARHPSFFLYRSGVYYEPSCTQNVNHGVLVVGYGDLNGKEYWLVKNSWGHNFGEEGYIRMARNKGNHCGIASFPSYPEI
human cathepsin L, sequence (P07711 114-333): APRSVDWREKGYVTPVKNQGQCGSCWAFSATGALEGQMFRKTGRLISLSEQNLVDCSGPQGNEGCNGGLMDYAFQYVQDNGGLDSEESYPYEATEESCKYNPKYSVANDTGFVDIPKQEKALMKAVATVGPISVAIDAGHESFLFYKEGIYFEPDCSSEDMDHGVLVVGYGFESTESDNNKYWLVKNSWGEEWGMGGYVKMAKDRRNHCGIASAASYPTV

Regarding `CCOc1cc(-c2ccc3cc(C(=O)NC4(C(=O)NC5(C#N)CC5)CCC(F)(F)CC4)oc3c2)ccc1-n1cncn1` [Example 54, N-(1-((1-cyanocyclopropyl)carbamoyl)-4,4-difluorocyclohexyl)-6-(3-ethoxy-4-(1H-1,2,4-triazol-1-yl)phenyl)benzofuran-2-carboxamide], the IC50 at human cathepsin K was 1.3 nM. Besides, on human cathepsin B, the IC50 worked out at 5000 nM. Besides, on human cathepsin L, the IC50 was above 10000 nM. Moreover, the IC50 at human cathepsin S was above 10000 nM. For the same compound, in series [1] (iv 1 mg/kg), the highest level (Cmax) was 1240 ng/mL, the Tmax (usually the time from dosing to the highest level) was determined as 0.33 h, the clearance was determined as 1.73 mL/min/kg and the AUC(0-inf) came out at 9700 ng·h/mL. For the same compound, in series [1] (iv 1 mg/kg), the AUC(0-t) was 9280 ng·h/mL, the half-life is 5.59 h and the Vd was 0.69 L/kg. For the same compound, in series [1] (po 5 mg/kg), the maximum concentration (Cmax) (usually the peak of the concentration-time curve) worked out at 2260 ng/mL, the Tmax turned out to be 3 h, the AUC(0-inf) is 22700 ng·h/mL and the AUC(0-t) came out at 21900 ng·h/mL. In addition, in series [1] (po 5 mg/kg), the half-life is 5.06 h. In addition, the bioavailability – broadly, dose-corrected exposure relative to a reference, in per cent – in series [1] is 46.9%.

`N#CC1(NC(=O)C2(NC(=O)c3cc4ccc(-c5ccc(-n6cncn6)c(OC(F)F)c5)cc4o3)CCC(F)(F)CC2)CC1` [Example 53, N-(1-((1-cyanocyclopropyl)carbamoyl)-4,4-difluorocyclohexyl)-6-(3-(difluoromethoxy)-4-(1H-1,2,4-triazol-1-yl)phenyl)benzofuran-2-carboxamide]: the IC50 at human cathepsin K is 1.4 nM. The IC50 at human cathepsin B was found to be 2500 nM. The IC50 on human cathepsin L is above 10000 nM. For the same compound, at human cathepsin S, the IC50 was above 10000 nM. In series [1] (iv 1 mg/kg), the peak level (Cmax) was 798 ng/mL, the Tmax was determined as 0.083 h, the clearance turned out to be 2.91 mL/min/kg and the AUC(0-inf) stood at 5740 ng·h/mL. Besides, in series [1] (iv 1 mg/kg), the AUC(0-t) is 5470 ng·h/mL, the half-life was 5.9 h and the Vd came to 1.2 L/kg. In series [1] (po 5 mg/kg), the Cmax was determined as 2230 ng/mL, the Tmax was 2.67 h, the AUC(0-inf) came to 21700 ng·h/mL and the AUC(0-t) was determined as 21100 ng·h/mL. Moreover, the half-life in series [1] (po 5 mg/kg) was 4.66 h. Also, the bioavailability in series [1] is 75.6%.

On to `Cc1cc(-c2ccc3cc(C(=O)NC4(C(=O)NC5(C#N)CC5)CCC(F)(F)CC4)oc3c2)ccc1-n1cncn1` [Example 43, N-(1-((1-cyanocyclopropyl)carbamoyl)-4,4-difluorocyclohexyl)-6-(3-methyl-4-(1H-1,2,4-triazol-1-yl)phenyl)benzofuran-2-carboxamide], for which the IC50 at human cathepsin K came to 0.69 nM. For the same compound, at human cathepsin B, the IC50 was 440 nM. Further, on human cathepsin L, the IC50 was above 10000 nM. The IC50 on human cathepsin S came out at 1340 nM. Further, in series [1] (iv 1 mg/kg), the Cmax was determined as 382 ng/mL, the time to peak (Tmax) is 0.78 h, the clearance amounted to 4.13 mL/min/kg and the AUC(0-inf) was found to be 4190 ng·h/mL. Moreover, in series [1] (iv 1 mg/kg), the AUC(0-t) was 3800 ng·h/mL, the half-life was 7.1 h and the Vd stood at 2.27 L/kg. Further, in series [1] (po 5 mg/kg), the highest level (Cmax) was 390 ng/mL, the time to peak (Tmax) was 4 h, the AUC(0-inf) stood at 15200 ng·h/mL and the AUC(0-t) amounted to 14300 ng·h/mL. For the same compound, the half-life in series [1] (po 5 mg/kg) was 5.84 h. This compound came in with a bioavailability in series [1] of 72.1%.

With `N#CC1(NC(=O)C2(NC(=O)c3cc4ccc(-c5ccc(-n6cncn6)cc5)cc4o3)CCC(F)(F)CC2)CC1` [Example 12, 6-(4-(1H-1,2,4-triazol-1-yl)phenyl)-N-(1-((1-cyanocyclopropyl)carbamoyl)-4,4-difluorocyclohexyl)benzofuran-2-carboxamide], the IC50 at human cathepsin K was determined as 1.8 nM. On human cathepsin B, the IC50 was found to be 1400 nM. For the same compound, the IC50 on human cathepsin L is above 10000 nM. Besides, the IC50 on human cathepsin S was determined as 2500 nM. Besides, in series [1] (iv 1 mg/kg), the Cmax amounted to 1110 ng/mL, the time of peak concentration (Tmax) stood at 0.08 h, the clearance stood at 1.8 mL/min/kg and the AUC(0-inf) is 9230 ng·h/mL. Moreover, in series [1] (iv 1 mg/kg), the AUC(0-t) came to 8150 ng·h/mL, the half-life was 7.84 h and the Vd was determined as 1.09 L/kg. Also, in series [1] (po 5 mg/kg), the peak concentration (Cmax) is 1890 ng/mL, the Tmax came out at 4.67 h, the AUC(0-inf) came to 28400 ng·h/mL and the AUC(0-t) came out at 25100 ng·h/mL. Moreover, the half-life in series [1] (po 5 mg/kg) is 6.14 h. The bioavailability in series [1] came out at 60.6%.

For the compound `COC1(c2ccc(-c3ccc4cc(C(=O)NC5(C(=O)NC6(C#N)CC6)CCCCC5)oc4c3)cc2)COC1` [Example 71], the IC50 on human cathepsin K was 2.1 nM; on human cathepsin B it was 290 nM; on human cathepsin L, above 10000 nM; on human cathepsin S it was above 10000 nM.

In the case of `N#CC1(NC(=O)C2(NC(=O)c3cc4ccc(-c5ccc(OC6COC6)cc5)cc4o3)CCC(F)(F)CC2)CC1` [Example 19, N-(1-((1-cyanocyclopropyl)carbamoyl)-4,4-difluorocyclohexyl)-6-(4-(oxetan-3-yloxy)phenyl)benzofuran-2-carboxamide], the IC50 on human cathepsin K was 2 nM; on human cathepsin B, above 10000 nM; on human cathepsin L, above 10000 nM; on human cathepsin S, 2300 nM.

Consider `N#CC1(NC(=O)C2(NC(=O)c3cc4ccc(-c5ccc(-n6ccnn6)cc5)cc4o3)CCC(F)(F)CC2)CC1` [Example 18, 6-(4-(1H-1,2,3-triazol-1-yl)phenyl)-N-(1-((1-cyanocyclopropyl)carbamoyl)-4,4-difluorocyclohexyl)benzofuran-2-carboxamide], for which the IC50 on human cathepsin K was found to be 2.2 nM. Besides, the IC50 on human cathepsin B worked out at 806 nM. Besides, the IC50 on human cathepsin L is above 10000 nM. Further, the IC50 on human cathepsin S turned out to be 2800 nM. For the same compound, in series [1] (iv 1 mg/kg), the Cmax was determined as 500 ng/mL, the Tmax is 0.083 h, the clearance is 5.14 mL/min/kg and the AUC(0-inf) was 3320 ng·h/mL. For the same compound, in series [1] (iv 1 mg/kg), the AUC(0-t) came to 3210 ng·h/mL, the half-life is 4.72 h and the Vd came to 1.92 L/kg. In series [1] (po 5 mg/kg), the highest level (Cmax) was 1380 ng/mL, the Tmax worked out at 3.33 h, the AUC(0-inf) worked out at 19900 ng·h/mL and the AUC(0-t) was 18600 ng·h/mL. Moreover, in series [1] (po 5 mg/kg), the half-life is 5.65 h. This compound had a bioavailability in series [1] of 98.6%.

As to `COc1cc(-c2ccc3cc(C(=O)NC4(C(=O)NC5(C#N)CC5)CCC(F)(F)CC4)oc3c2)ccc1-n1cncn1` [Example 39, N-(1-((1-cyanocyclopropyl)carbamoyl)-4,4-difluorocyclohexyl)-6-(3-methoxy-4-(1H-1,2,4-triazol-1-yl)phenyl)benzofuran-2-carboxamide], the IC50 at human cathepsin K is 0.31 nM; at human cathepsin B, 409 nM; on human cathepsin L, above 10000 nM; on human cathepsin S, above 10000 nM.

With `N#CC1(NC(=O)C2(NC(=O)c3cc4ccc(-c5ccc(-n6cncn6)cc5)cc4o3)CCCCC2)CC1` [Example 84], the IC50 on human cathepsin K is 1.3 nM; at human cathepsin B, 860 nM; on human cathepsin L, above 10000 nM; at human cathepsin S, 9700 nM.
